Data on 26 molecules can be found in patent US8546452B2, “S1P3 receptor antagonist” (TOA Eiyo Ltd., priority 2005, dated 2013).

Common to all, as to format: cell-based
For one assay, the target named is hS1P3 (Homo sapiens, UniProt Q99500). In words: Suppressive effect on S1P-induced increase in [Ca2+]i, CHO-K1 cells expressing S1P3 (Fura 2-AM), IC50. The note with it: S1P solution 50 nmol/L, read-out: hS1P3 suppression IC50.
The next assay has as its target T1, hS1P2 (Homo sapiens, UniProt O95136).
T1 construct: expressed in transfected cells
Description: S1P receptor subtype selectivity, S1P-induced [Ca2+]i increase in CHO-K1 cells stably expressing S1P2 (Calcium3). As for the experimental part: (§1) The selectivity to the S1P receptor subtype was examined in the following manner. […] Furthermore, a Calcium3 (Molecular Devices, Inc.) solution prepared in HBSS (+) buffer, which is a fluorescent Ca^2+ indicator, was added, and the cells were incubated for 60 minutes at 37° C. Then, 100 μL of a test compound solution prepared to a concentration of 2×10 μmol/L was added, and the cells were incubated for 20 minutes at 37° C. […] The indicator was prepared and used according to the instruction manual.
(§2) A solution of the test compound was prepared by dissolving each of the test compounds in DMSO to a concentration of 10 mmol/L, and then diluting the solution with an HBSS (+) buffer solution to the predetermined concentration. […] The measurement values were obtained by subtracting the maximum RFU value for the blind test from the maximum RFU values for control or each test compounds. A decrease in the measurement value for the test compound relative to the control was indicated as the suppression rate (%), from which the IC50 value was calculated.

Another assay has as its target T2, hS1P1 (Homo sapiens, UniProt P21453).
T2 construct: expressed in transfected cells
Description: S1P receptor subtype selectivity, S1P-induced [Ca2+]i increase in CHO-K1 cells stably expressing S1P1 (Calcium3). On the procedure:
as §1, §2

The mark [1] stands for this setting: CHO-K1, read-out: Suppression rate at 10 μM (%) hS1P2.
[2] abbreviates: CHO-K1, read-out: Suppression rate at 10 μM (%) hS1P1.
Where [3] appears, read: 10 μM, CHO-K1 stably expressing S1P2, S1P solution 100 nmol/L, Calcium3, read-out: Suppression rate at 10 μM (%) hS1P2.
Setting [4] is: 10 μM, CHO-K1 stably expressing S1P1, S1P solution 100 nmol/L, Calcium3, read-out: Suppression rate at 10 μM (%) hS1P1.

Like-named read-outs stand apart in the source and are kept apart here.

T1 sequence (O95136 whole entry): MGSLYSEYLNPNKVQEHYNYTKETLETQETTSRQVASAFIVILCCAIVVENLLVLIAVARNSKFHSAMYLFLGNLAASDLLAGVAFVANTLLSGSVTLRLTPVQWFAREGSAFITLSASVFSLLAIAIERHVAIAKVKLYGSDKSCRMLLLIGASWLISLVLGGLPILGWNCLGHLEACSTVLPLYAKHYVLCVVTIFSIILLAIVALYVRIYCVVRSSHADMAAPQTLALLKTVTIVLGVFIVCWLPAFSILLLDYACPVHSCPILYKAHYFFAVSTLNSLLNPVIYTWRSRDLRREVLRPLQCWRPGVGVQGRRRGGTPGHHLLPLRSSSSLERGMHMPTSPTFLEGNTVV
Chain of hS1P3 (Q99500 whole entry): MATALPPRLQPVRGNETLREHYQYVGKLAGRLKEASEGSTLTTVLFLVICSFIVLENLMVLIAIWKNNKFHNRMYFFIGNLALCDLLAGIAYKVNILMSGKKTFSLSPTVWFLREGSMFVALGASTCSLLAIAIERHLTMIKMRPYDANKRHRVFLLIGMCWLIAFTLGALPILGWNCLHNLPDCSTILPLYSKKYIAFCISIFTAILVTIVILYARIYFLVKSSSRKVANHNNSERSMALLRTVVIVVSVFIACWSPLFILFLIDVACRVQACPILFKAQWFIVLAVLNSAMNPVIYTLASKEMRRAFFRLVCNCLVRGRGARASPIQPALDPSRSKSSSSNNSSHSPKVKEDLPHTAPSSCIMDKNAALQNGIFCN
T2 sequence (P21453 whole entry): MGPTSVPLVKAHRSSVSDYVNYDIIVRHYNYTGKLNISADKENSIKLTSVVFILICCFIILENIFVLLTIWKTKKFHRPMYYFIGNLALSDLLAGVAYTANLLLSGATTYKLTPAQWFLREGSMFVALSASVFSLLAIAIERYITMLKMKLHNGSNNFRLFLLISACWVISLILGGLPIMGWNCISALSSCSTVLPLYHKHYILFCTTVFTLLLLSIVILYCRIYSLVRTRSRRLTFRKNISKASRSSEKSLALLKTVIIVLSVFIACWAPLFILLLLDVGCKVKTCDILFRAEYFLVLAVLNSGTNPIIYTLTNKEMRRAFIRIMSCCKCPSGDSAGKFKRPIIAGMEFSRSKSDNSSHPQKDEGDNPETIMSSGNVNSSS

Regarding `C#Cc1ccc(NN=C(Nc2cccc(Cl)c2)C(=O)C(C)(C)C)cc1` [Compound 108, 1-(3-chlorophenylamino)-1-(4-ethynylphenylhydrazono)-3,3-dimethyl-2-butanone], the IC50 (usually the concentration that gives 50% inhibition) on hS1P3 came out at 840 nM. Besides, the values for the inhibition at 10 µM at hS1P2 (setting [1]) and on hS1P1 (setting [2]) were 15.8% and 11.1%, respectively.

In the case of `C#Cc1ccc(NN=C(Nc2cccc(F)c2)C(=O)C(C)(C)C)cc1` [Compound 131, 1-(3-fluorophenylamino)-1-(4-ethynylphenylhydrazono)-3,3-dimethyl-2-butanone], at hS1P3, the half-maximal inhibitory concentration (IC50) worked out at 750 nM. In addition, the inhibition at 10 µM on hS1P2 (setting [3]) stood at 24.7%; on hS1P1 (setting [4]), 15.7%.

Regarding `C#Cc1ccc(NC(=NNc2ccc(Cl)cc2)C(=O)c2ccco2)cc1` [Compound 117, 1-(4-chlorophenylhydrazono)-1-(4-ethynylphenylamino)-2-(2-furyl)-2-ethanone], the IC50 on hS1P3 is 2340 nM. Further, the inhibition at 10 µM was determined as 31.6% on hS1P2 (setting [1]) and 20.4% on hS1P1 (setting [2]).

Regarding `CCC(CC)C(=O)C(=NNc1ccc(Cl)cc1)Nc1cccc(Cl)c1` [Compound 137, 1-(3-chlorophenylamino)-1-(4-chlorophenylhydrazono)-3-ethyl-2-pentanone], the IC50 on hS1P3 came out at 1590 nM. Besides, the inhibition at 10 µM on hS1P2 (setting [1]) turned out to be 30.1%; on hS1P1 (setting [2]), 35.3%.

Regarding `CC(C)(C)C(=O)C(=NNc1ccc(Cl)cc1)Nc1cccc(Cl)c1` [Compound 133, 1-(3-chlorophenylamino)-1-(4-chlorophenylhydrazono)-3,3-dimethyl-2-butanone], the IC50 at hS1P3 stood at 840 nM. Besides, the inhibition at 10 µM on hS1P2 (setting [1]) was determined as 37.7%; on hS1P1 (setting [2]), 16.7%.

`Cc1ccc(NN=C(Nc2cc(Cl)cc(Cl)c2)C(=O)C(C)(C)C)cc1` [Compound 64, 1-(3,5-dichlorophenylamino)-1-(4-methylphenylhydrazono)-3,3-dimethyl-2-butanone]: the results for the inhibition at 10 µM at hS1P2 (setting [1]) and at hS1P1 (setting [2]) were 9.1% and -1%, respectively.

For `CC(C)(C)NC(=O)C(=NNc1ccc(Cl)cc1)Nc1ccc(Cl)cc1` [Compound 29, N-tert-butyl-[1-(4-chlorophenylamino)-1-(4-chlorophenylhydrazono)]acetamide], the IC50 on hS1P3 came out at 5110 nM. For the same molecule, the inhibition at 10 µM at hS1P2 (setting [1]) is 17.4%; at hS1P1 (setting [2]) it was 29.7%.

As to `CC(C)(C)C(=O)C(=NNc1ccc(F)cc1)Nc1cccc(F)c1` [Compound 53, 1-(3-fluorophenylamino)-1-(4-fluorophenylhydrazono)-3,3-dimethyl-2-butanone], the IC50 on hS1P3 was 4470 nM. The inhibition at 10 µM at hS1P2 (setting [3]) amounted to 18.5%; on hS1P1 (setting [4]), 27.1%.

Take `CCOC(=O)C(=NNc1ccc(Cl)cc1)Nc1ccccc1` [Compound 19, ethyl 1-(4-chlorophenylhydrazono)-1-(phenylamino)acetate]: at hS1P3, the IC50 was determined as 3640 nM. Moreover, the inhibition at 10 µM at hS1P2 (setting [3]) was -8.6%; on hS1P1 (setting [4]), -25.4%.

With `CCOC(=O)C(=NNc1ccc(Cl)cc1)Nc1cccc(F)c1` [Compound 13, ethyl 1-(4-chlorophenylhydrazono)-1-(3-fluorophenylamino)acetate], the IC50 on hS1P3 came out at 3120 nM. Moreover, the inhibition at 10 µM was -16.7% at hS1P2 (setting [3]) and 26.1% on hS1P1 (setting [4]).

Regarding `CC(C)(C)CC(=O)C(=NNc1ccc(Cl)cc1)Nc1ccc(Cl)cc1` [Compound 139, 1-(4-chlorophenylamino)-1-(4-chlorophenylhydrazono)-4,4-dimethyl-2-pentanone], the IC50 on hS1P3 came to 1700 nM. The inhibition at 10 µM at hS1P2 (setting [1]) was determined as 40.6%; on hS1P1 (setting [2]), 14.9%.

Take `CC(C)(C)C(=O)C(=NNc1ccccc1)Nc1cccc(F)c1` [Compound 49, 1-(3-fluorophenylamino)-1-(phenylhydrazono)-3,3-dimethyl-2-butanone]: the IC50 at hS1P3 was 5320 nM. For the same molecule, the results for the inhibition at 10 µM on hS1P2 (setting [3]) and at hS1P1 (setting [4]) were 3.6% and 6.6%, respectively.

`CC(C)(C)C(=O)C(=NNc1ccc(Br)cc1)Nc1ccc(Cl)cc1` [Compound 75, 1-(4-bromophenylhydrazono)-1-(4-chlorophenylamino)-3,3-dimethyl-2-butanone]: the IC50 at hS1P3 was 1170 nM. The inhibition at 10 µM turned out to be 17.9% on hS1P2 (setting [1]) and 17% on hS1P1 (setting [2]).

For the molecule `Cc1ccc(NN=C(Nc2ccc(Cl)c(Cl)c2)C(=O)C(C)(C)C)cc1` [Compound 65, 1-(3,4-dichlorophenylamino)-1-(4-methylphenylhydrazono)-3,3-dimethyl-2-butanone], the IC50 on hS1P3 came out at 670 nM. For the same molecule, the inhibition at 10 µM at hS1P2 (setting [3]) is 10%; at hS1P1 (setting [4]), 5.1%.

In the case of `O=C(C(=NNc1ccc(Cl)cc1)Nc1ccc(Cl)cc1)c1ccco1` [Compound 116, 1-(4-chlorophenylamino)-1-(4-chlorophenylhydrazono)-2-(2-furyl)-2-ethanone], the IC50 at hS1P3 was determined as 2070 nM.

In the case of `CC(C)(C)C(=O)C(=NNc1ccc(F)cc1)Nc1ccc(Cl)cc1` [Compound 55, 1-(4-chlorophenylamino)-1-(4-fluorophenylhydrazono)-3,3-dimethyl-2-butanone], at hS1P3, the IC50 is 2750 nM.

`CC(C)(C)C(=O)C(=NNc1ccc(Br)cc1)Nc1ccc(C#N)cc1` [Compound 77, 1-(4-bromophenylhydrazono)-1-(4-cyanophenylamino)-3,3-dimethyl-2-butanone]: the IC50 at hS1P3 was determined as 1510 nM.

`CC(C)(C)C(=O)C(=NNc1ccc(Cl)c(Cl)c1)Nc1cccc(Cl)c1` [Compound 123, 1-(3-chlorophenylamino)-1-(3,4-dichlorophenylhydrazono)-3,3-dimethyl-2-butanone]: at hS1P3, the half-inhibitory concentration (IC50) came out at 340 nM.

Regarding `O=C(C(=NNc1ccc(Cl)cc1)Nc1cccc(F)c1)c1ccccc1` [Compound 1, 2-(4-Chlorophenylhydrazono)-2-(3-fluorophenylamino)acetophenone], the IC50 on hS1P3 turned out to be 6720 nM.

For the molecule `C#Cc1ccc(NN=C(Nc2ccc(Cl)cc2)C(=O)C(C)(C)C)cc1` [Compound 106, 1-(4-chlorophenylamino)-1-(4-ethynylphenylhydrazono)-3,3-dimethyl-2-butanone], the 50% inhibitory concentration (IC50) on hS1P3 was found to be 660 nM.

Consider `CC(C)(C)C(=O)C(=NNc1ccc(C#N)cc1)Nc1cccc(F)c1` [Compound 81, 1-(4-cyanophenylhydrazono)-1-(3-fluorophenylamino)-3,3-dimethyl-2-butanone], for which the IC50 on hS1P3 was 5520 nM.

As to `O=C(C(=NNc1ccc(Cl)cc1)Nc1ccc(Cl)cc1)c1cccs1` [Compound 125, 1-(4-chlorophenylamino)-1-(4-chlorophenylhydrazono)-2-(2-thienyl)-2-ethanone], on hS1P3, the IC50 came out at 8290 nM.

`CC(C)(C)C(=O)C(=NNc1ccc(F)cc1)Nc1ccc(Br)cc1` [Compound 56, 1-(4-bromophenylamino)-1-(4-fluorophenylhydrazono)-3,3-dimethyl-2-butanone]: on hS1P3, the half-maximal inhibitory concentration (IC50) is 2160 nM.

`CC(C)(C)C(=O)C(=NNc1ccc(Br)cc1)Nc1ccc(Cl)c(F)c1` [Compound 105, 1-(4-bromophenylhydrazono)-1-(4-chloro-3-fluorophenylamino)-3,3-dimethyl-2-butanone]: the IC50 on hS1P3 was 520 nM.

With `CC(=O)c1ccc(NN=C(Nc2ccc(F)cc2)C(=O)C(C)(C)C)cc1` [Compound 92, 1-(4-acetylphenylhydrazono)-1-(4-fluorophenylamino)-3,3-dimethyl-2-butanone], at hS1P3, the IC50 amounted to 11600 nM.

With `CCOC(=O)C(=NNc1ccc(Cl)cc1)Nc1cc(Cl)cc(Cl)c1` [Compound 18, ethyl 1-(4-chlorophenylhydrazono)-1-(3,5-dichlorophenylamino)acetate], on hS1P3, the IC50 came to 2340 nM.
